Source: publication PMC4667779 (Bioorganic & medicinal chemistry, 2014)
Read-outs that look alike come from different tables or passages of the source.

Target: Pantothenate synthetase (PanC) from Mtb (Mycobacterium tuberculosis, UniProt P9WIL5)
Type: biochemical

Sequence of Pantothenate synthetase (PanC) from Mtb (P9WIL5 whole entry, looked up): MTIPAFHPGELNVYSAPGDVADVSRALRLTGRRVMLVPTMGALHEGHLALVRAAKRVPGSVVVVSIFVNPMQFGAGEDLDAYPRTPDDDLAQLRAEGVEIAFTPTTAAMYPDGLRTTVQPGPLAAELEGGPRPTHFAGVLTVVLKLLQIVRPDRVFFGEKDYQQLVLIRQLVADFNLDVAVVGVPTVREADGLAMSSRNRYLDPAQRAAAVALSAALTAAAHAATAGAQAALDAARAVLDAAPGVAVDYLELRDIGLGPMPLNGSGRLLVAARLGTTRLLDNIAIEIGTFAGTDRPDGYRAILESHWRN

| Compound | fold loss in affinity relative to 1a (ratio of Ki values) | further results |
| --- | --- | --- |
| CC(C)(C)[C@@H](O)C(=O)NS(=O)(=O)OC[C@H]1O[C@@H](n2cnc3c(N)ncnc32)[C@H](O)[C@@H]1O [1a, 5′-O-[N-((R)-2-Hydroxy-3,3-dimethylbutanoyl)sulfamoyl]adenosine] | – | modality of inhibition with respect to pantoic acid (double-reciprocal plots, fixed ATP and saturating β-alanine): competitive inhibitor towards pantoic acid |
| CC(C)(CO)[C@@H](O)CNS(=O)(=O)NC[C@H]1O[C@@H](n2cnc3c(N)ncnc32)[C@H](O)[C@@H]1O [compound 5, 5′-Amino-5′-deoxy-5′-N-[N-((R)-2,2-dimethylbutane-1,3-diol-4-yl)sulfamoyl] adenosine] | approximately 13 fold | – |
| CC(C)(C)[C@@H](O)C(=O)NS(=O)(=O)OC[C@H]1O[C@@H](n2cnc3c(N)ncnc32)[C@H](F)[C@@H]1O [compound 3, 2′-Deoxy-2′-fluoro-5′-O-[N-((R)-2-Hydroxy-3,3-dimethylbutanoyl)sulfamoyl] adenosine] | – | fold loss in affinity relative to 1a: 2–3 fold |
| CC(C)(C)[C@@H](O)C(=O)NS(=O)(=O)OC[C@H]1C[C@@H](n2cnc3c(N)ncnc32)[C@H](O)[C@@H]1O [compound 4, 5′-O-[N-((R)-2-Hydroxy-3,3-dimethylbutanoyl)sulfamoyl]aristeromycin] | 2–3 fold | – |
| CC(C)(C)[C@@H](O)C(=O)NS(=O)(=O)OC[C@H]1O[C@@H](n2cnc3c(N)ncnc32)[C@@H](O)[C@@H]1O [compound 2, 5′-O-[N-((R)-2-Hydroxy-3,3-dimethylbutanoyl)sulfamoyl]vidarabine] | 4–6 fold | – |
